Test results published in ChEMBL document CHEMBL1201862, “PubChem BioAssay data set” (2004).
Calls of active or inactive are those of the source.

Legend:
Caspase-6 = target: T1, Caspase-6 (Homo sapiens, UniProt P55212); assay: human caspase-6 inhibitors, dose response, biochemical, VEID-R110 fluorescence, cherry-pick (AID 720632)
T1 sequence (P55212 whole entry): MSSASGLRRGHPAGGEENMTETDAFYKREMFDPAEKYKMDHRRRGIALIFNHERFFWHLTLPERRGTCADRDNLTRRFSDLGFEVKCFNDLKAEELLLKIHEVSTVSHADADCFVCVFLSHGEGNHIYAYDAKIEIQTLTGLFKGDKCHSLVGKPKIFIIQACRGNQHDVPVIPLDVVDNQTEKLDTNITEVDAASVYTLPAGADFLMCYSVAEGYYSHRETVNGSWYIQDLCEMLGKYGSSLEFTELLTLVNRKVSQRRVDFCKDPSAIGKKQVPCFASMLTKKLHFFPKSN

[1] = target: Tyrosine-protein phosphatase non-receptor type 5 (Homo sapiens, UniProt P54829); assay: STEP phosphatase inhibitors, confirmation, biochemical, fluorescence intensity, uHTS hits (AID 602372); type: functional; conditions: read-out: IC50_Mean
Sequence of Tyrosine-protein phosphatase non-receptor type 5 (P54829 whole entry): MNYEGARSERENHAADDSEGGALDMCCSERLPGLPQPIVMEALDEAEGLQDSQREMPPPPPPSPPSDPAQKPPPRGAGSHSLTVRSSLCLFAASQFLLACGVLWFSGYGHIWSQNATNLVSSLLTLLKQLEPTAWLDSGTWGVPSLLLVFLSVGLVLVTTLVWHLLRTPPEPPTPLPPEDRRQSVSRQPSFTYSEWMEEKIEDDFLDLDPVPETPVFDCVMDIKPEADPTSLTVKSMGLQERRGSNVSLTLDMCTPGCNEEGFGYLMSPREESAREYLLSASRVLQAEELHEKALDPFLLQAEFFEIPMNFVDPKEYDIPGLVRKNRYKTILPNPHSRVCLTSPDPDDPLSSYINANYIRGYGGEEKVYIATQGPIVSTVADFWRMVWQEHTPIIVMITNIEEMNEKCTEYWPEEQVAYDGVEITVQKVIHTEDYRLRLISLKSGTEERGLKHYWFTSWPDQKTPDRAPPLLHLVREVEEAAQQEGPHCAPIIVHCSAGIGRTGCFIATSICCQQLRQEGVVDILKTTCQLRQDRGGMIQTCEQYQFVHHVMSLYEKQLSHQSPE

[2] = target: T2, Tyrosine-protein phosphatase non-receptor type 22 (Homo sapiens, UniProt Q9Y2R2); assay: PTPN22 phosphatase inhibition, dose response, selectivity assay for STEP inhibitor project, biochemical (AID 624241); type: functional
T2 sequence (Q9Y2R2 whole entry): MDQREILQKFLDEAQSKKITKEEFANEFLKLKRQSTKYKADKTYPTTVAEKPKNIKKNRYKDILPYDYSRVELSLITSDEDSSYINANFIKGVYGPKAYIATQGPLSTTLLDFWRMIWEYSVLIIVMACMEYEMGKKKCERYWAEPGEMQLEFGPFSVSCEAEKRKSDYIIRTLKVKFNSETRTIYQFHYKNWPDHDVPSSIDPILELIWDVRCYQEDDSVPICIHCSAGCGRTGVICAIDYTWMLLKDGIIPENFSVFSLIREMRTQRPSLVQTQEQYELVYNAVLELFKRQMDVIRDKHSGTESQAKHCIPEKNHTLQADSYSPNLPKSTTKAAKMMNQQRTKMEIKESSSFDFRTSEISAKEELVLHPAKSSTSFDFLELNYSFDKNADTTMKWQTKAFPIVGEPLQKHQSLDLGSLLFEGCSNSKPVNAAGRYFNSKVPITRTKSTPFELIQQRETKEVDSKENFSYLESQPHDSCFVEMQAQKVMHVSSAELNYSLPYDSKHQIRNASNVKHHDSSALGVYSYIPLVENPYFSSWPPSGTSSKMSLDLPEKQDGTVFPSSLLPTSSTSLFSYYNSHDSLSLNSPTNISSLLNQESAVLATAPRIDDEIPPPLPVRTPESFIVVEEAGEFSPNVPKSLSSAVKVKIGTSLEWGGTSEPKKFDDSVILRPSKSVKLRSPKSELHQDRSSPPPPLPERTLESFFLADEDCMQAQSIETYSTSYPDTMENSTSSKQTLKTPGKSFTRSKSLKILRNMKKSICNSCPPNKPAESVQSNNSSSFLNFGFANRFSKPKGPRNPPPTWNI

[3] = target: Polyadenylate-binding protein 1 (Homo sapiens, UniProt P11940); assay: PABP1 MLLE–PAM2 interaction inhibitors, dose response, miRNA deadenylation inhibitor project, biochemical, fluorescence polarization, Cy5-PAM2 peptide, secondary (AID 602260); type: functional; conditions: read-out: IC50_Mean
Sequence of Polyadenylate-binding protein 1 (P11940 whole entry): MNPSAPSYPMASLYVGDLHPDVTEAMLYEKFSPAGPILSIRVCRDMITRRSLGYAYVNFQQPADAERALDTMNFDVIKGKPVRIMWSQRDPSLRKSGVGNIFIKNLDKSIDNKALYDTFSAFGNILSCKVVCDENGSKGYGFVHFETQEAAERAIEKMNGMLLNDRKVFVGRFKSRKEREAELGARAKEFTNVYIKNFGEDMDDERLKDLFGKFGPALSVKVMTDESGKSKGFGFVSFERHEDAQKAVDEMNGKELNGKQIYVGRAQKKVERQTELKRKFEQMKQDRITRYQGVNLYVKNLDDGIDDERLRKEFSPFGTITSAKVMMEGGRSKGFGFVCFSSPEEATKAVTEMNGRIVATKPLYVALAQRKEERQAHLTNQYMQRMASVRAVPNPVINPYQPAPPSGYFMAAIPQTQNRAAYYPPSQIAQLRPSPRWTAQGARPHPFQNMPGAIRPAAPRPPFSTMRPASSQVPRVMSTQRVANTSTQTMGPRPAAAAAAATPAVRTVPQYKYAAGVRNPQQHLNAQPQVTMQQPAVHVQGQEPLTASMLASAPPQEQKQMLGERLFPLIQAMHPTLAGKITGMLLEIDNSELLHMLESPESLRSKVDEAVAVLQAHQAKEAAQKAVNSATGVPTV

Genome polyprotein = Genome polyprotein (dengue virus type 2, UniProt P29990); assay: Dengue-2 NS5 methyltransferase inhibitors, primary screen, biochemical, confirmation dose response (AID 588689); type: functional
Sequence of Genome polyprotein (P29990 2492-3391 limits assumed): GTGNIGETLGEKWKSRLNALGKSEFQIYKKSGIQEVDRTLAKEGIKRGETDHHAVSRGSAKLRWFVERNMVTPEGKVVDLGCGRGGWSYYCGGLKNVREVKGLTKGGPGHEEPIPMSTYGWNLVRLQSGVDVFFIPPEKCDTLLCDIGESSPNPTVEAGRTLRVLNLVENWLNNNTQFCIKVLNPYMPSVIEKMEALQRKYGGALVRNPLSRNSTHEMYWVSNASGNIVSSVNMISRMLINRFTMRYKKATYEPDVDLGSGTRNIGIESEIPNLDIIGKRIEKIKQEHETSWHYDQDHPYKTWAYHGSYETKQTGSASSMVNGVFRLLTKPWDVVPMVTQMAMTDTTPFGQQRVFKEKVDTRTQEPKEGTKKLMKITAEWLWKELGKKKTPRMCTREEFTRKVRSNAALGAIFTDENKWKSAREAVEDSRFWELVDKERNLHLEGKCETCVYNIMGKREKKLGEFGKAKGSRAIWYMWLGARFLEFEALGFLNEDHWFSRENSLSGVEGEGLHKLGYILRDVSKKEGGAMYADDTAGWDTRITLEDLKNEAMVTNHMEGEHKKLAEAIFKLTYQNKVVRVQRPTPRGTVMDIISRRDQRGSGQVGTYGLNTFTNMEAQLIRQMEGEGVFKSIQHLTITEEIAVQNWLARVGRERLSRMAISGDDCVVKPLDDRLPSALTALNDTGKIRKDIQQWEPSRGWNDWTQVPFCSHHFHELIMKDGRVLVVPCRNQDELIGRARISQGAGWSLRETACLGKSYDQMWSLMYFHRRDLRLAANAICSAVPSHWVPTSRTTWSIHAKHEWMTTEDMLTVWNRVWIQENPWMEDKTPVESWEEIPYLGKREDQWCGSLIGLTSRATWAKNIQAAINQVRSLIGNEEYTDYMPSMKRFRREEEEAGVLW

[4] = target: T3, High affinity choline transporter 1 (Homo sapiens, UniProt Q9GZV3); assay: CHT inhibitors, dose response, cell-based, 5-point CRC, membrane potential dye (AID 504840); type: functional
T3 sequence (Q9GZV3 whole entry): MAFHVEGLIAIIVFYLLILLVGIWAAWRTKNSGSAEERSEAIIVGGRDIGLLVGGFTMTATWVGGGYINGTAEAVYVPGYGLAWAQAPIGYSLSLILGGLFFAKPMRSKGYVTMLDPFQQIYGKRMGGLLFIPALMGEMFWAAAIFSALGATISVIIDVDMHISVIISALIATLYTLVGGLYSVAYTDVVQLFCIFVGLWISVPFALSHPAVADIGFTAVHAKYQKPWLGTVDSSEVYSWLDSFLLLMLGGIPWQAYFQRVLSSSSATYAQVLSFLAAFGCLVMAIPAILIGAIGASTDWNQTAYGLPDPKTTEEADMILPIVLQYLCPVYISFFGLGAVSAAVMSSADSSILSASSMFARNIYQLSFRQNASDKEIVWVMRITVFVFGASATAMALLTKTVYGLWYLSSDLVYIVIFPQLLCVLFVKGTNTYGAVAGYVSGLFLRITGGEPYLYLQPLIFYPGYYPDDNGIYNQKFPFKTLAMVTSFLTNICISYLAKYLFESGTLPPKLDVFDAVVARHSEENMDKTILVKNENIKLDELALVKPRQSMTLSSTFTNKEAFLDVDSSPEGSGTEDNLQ

[5] = target: Kappa-type opioid receptor (Homo sapiens, UniProt P41145); type: functional
Sequence of Kappa-type opioid receptor (P41145 whole entry): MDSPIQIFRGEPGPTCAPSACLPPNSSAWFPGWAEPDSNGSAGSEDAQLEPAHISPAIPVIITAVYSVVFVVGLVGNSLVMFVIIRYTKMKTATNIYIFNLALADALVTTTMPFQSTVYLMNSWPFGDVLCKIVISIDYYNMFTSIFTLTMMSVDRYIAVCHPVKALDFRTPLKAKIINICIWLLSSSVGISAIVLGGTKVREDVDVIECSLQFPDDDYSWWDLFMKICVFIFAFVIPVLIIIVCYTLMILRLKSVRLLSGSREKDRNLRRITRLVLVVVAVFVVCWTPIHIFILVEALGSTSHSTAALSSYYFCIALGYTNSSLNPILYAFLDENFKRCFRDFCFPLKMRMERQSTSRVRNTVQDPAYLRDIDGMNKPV

[6] = target: Delta-type opioid receptor (Homo sapiens, UniProt P41143); assay: HTS Image-Based Screen for Agonists of the DOR Receptor. [Related pubchem assays (depositor defined):AID1777, AID1786, AID2133]; type: functional
Sequence of Delta-type opioid receptor (P41143 whole entry, the tested form may be a part): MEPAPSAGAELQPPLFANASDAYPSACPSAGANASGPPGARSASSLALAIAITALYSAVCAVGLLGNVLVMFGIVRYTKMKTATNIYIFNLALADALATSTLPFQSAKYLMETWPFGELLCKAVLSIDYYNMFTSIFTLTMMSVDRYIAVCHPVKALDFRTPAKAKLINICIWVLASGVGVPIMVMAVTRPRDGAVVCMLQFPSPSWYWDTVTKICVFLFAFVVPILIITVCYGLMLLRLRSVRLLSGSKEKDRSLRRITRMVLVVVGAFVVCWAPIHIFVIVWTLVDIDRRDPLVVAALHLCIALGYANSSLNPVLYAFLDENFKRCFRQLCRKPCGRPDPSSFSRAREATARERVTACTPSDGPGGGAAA

CHO = assay: cytotoxicity in TLR9-MyD88 CHO cells, dose response, cytotoxicity control for TLR9-MyD88 binding inhibitor project, cell-based, luminescence (AID 588339); type: functional, hamster; conditions: Cricetulus griseus;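 further: CHO cells stably coexpressing TLR9 and MyD88 fusions from primary screen; compound exposure lasted 48 hours before viability readout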

With `O=S(=O)(O)c1cc(O)c2cc(Nc3ccccc3)ccc2c1` the AC50 (Caspase-6) was 0.403 µM (active), the IC50 [1] was 6.49 µM (active) and the IC50 [2] was 5.09 µM (active). For the same molecule, the IC50 [3] was > 66 µM (inactive) and the IC50 (Genome polyprotein) was 19.4 µM (active).

For `O=[N+]([O-])c1c(Nc2ccccc2O)cc(Cl)c2nonc12`, the IC50 [4] was 13.2 µM (active), the IC50 [5] was 2.89 µM (active) and the EC50 [6] was > 32 µM (inactive). For the same molecule, the IC50 (CHO) was 1.36 µM (active) and the IC50 (Genome polyprotein) was 9.7 µM (active).
